Assay results from BigSolDB 2.1.

O=C1Nc2ccccc2C1=O
Conditions | solubility (mole fraction)
in PEG-400, 298.15 K | 0.0985
in PEG-400, 308.15 K | 0.109
in PEG-400, 318.15 K | 0.121
in PEG-400, 328.15 K | 0.132
in PEG-400, 338.15 K | 0.144

solubility (mole fraction)
Conditions | in ethanol | in ethyl acetate | in ethylene glycol | in isopropanol | in propylene glycol | in sec-butanol | in transcutol | in water
298.15 K | 0.00409 | 0.00568 | 0.00754 | 0.00419 | 0.00673 | 0.00516 | 0.523 | 5.14e-05
308.15 K | 0.00506 | 0.00738 | 0.0092 | 0.00545 | 0.00827 | 0.00596 | 0.539 | 8.08e-05
318.15 K | 0.0065 | 0.00926 | 0.011 | 0.00694 | 0.01 | 0.0071 | 0.561 | 0.000113
328.15 K | 0.00755 | 0.0111 | 0.0127 | 0.00867 | 0.0112 | 0.00814 | 0.581 | 0.000152
338.15 K | 0.00897 | 0.013 | 0.0146 | 0.0105 | 0.0133 | 0.00899 | 0.598 | 0.000202
